# Read-outs that look alike come from different tables or passages of the source.
# Experiments:
# [1] = tested on: SARS-CoV-2 WA1 (USA-WA1/2020); experiment: Antiviral immunofluorescence assay, SARS-CoV-2 WA1 in Calu-3 cells; type: cell-based; conditions: for EC50 / EC90: immunofluorescence, 44 hpi, mean ± SD; for EC50: read-out: EC50
# SARS-CoV-2 (WA-1) [2] = experiment: Antiviral immunofluorescence assay, SARS-CoV-2 WA1 in Huh7.5 cells; type: cell-based
# SARS-CoV-2 (WA-1) [3] = experiment: Antiviral immunofluorescence assay, SARS-CoV-2 WA1 in Vero-TMPRSS2 cells; type: cell-based
# in vitro [4] = conditions: human
# in vitro [5] = conditions: human; remark: listed apart in the source
# in vitro [6] = experiment: in vitro
# Protocol: (§1) Cells were seeded as per SARS-CoV-2 infection studies in opaque walled 96-well cell culture plates and incubated overnight for Huh7.5 and Vero-TMPRSS2 cells and for an additional 24h for Calu-3 cells. Compounds or controls were added at the indicated concentrations. Cells were incubated for 48h for Huh7.5 cells, 40–44h for Calu-3 cells, or 30–32h for Vero-TMPRSS2 cells at 37 °C and 5% CO2, an equal volume of CellTiter-Glo reagent (Cat. #G7570, Promega) or CellTiter-Glo 2.0 reagent (Cat. #G9241, Promega) was added and mixed, and luminescence was recorded on a Veritas Microplate Luminometer (Turner BioSystems) according to manufacturer recommendations. Percent viability was calculated compared to DMSO controls, and CC50 values were calculated using Prism 9.
# (§2) Calu-3 cells were treated for 44h (A), Huh7.5 cells were treated for 48h (B), and Vero-
# (§3) TMPRSS2 cells were treated for 38h (C) as in infection assays for each cell type. Cell viability
# (§4) was measured by CellTiter-Glo assay and reported as % cell viability relative to DMSO controls.
# (§5) Best fit curves calculated in Graphpad Prism 9 were used
# (§6) to compute cytotoxic concentration 50% (CC50) values in Tables 1-3.
# SARS-CoV-2 (WA-1) [7] = experiment: Antiviral immunofluorescence assay, SARS-CoV-2 WA1 in human pluripotent stem cell-derived lung cells; type: cell-based; conditions: 24 hpi
# in vitro [8] = conditions: human; remark: listed apart in the source
# [9] = tested on: SARS-CoV-2 WA1 (USA-WA1/2020); parameters: method as in Schooley et al.[24]; conditions: Calu-3 cells, ref Schooley et al.[24]; cited from earlier work
# Calu-3 cells [10] = conditions: cited from earlier work
# Calu-3 cells [11] = experiment: Cell viability assay (CellTiter-Glo), Calu-3 cells; conditions: uninfected Calu-3 cells, 44h
# Huh7.5 cells = experiment: Cell viability assay (CellTiter-Glo), Huh7.5 cells; conditions: uninfected Huh7.5 cells, 48h
# Vero-TMPRSS2 cells = experiment: Cell viability assay (CellTiter-Glo), Vero-TMPRSS2 cells; conditions: uninfected Vero-TMPRSS2 cells, 38h
# Protocol: as §1, §2, §3, §4, §5, §6
# [12] = tested on: human pluripotent stem cell-derived lung cells; experiment: Cytotoxicity by relative number of nuclei, human pluripotent stem cell-derived lung cells; conditions: PSC-lung cells, relative number of nuclei (IF) vs vehicle-treated wells
# [13] = Severe acute respiratory syndrome coronavirus 2, Calu-3, WA1, Calu-3 cells
# [14] = Severe acute respiratory syndrome coronavirus 2, WA1, Calu-3 cells
# [15] = Severe acute respiratory syndrome coronavirus 2, WA-1, Huh7.5 cells, immunofluorescence, 48 hpi, read-out: EC50
# [16] = Severe acute respiratory syndrome coronavirus 2, WA-1, Huh7.5 cells, immunofluorescence, 48 hpi, read-out: EC90
# [17] = Severe acute respiratory syndrome coronavirus 2, Vero/TMPRSS2
# [18] = Severe acute respiratory syndrome coronavirus 2, WA-1, Vero-TMPRSS2 cells, immunofluorescence, 38 hpi
# [19] = Severe acute respiratory syndrome coronavirus 2, WA-1, PSC-lung cells (ALDA 31616 and H9)
# [20] = Severe acute respiratory syndrome coronavirus 2, Huh7.5
# [21] = WA-1, Huh7.5 cells, immunofluorescence, 48 hpi, read-out: EC50
# [22] = WA-1, Huh7.5 cells, immunofluorescence, 48 hpi, read-out: EC90
# [23] = WA-1, Vero-TMPRSS2 cells, immunofluorescence, 38 hpi
# [24] = WA-1, Vero-TMPRSS2 cells, immunofluorescence, 38 hpi, read-out: EC50
# [25] = WA-1, PSC-lung cells (ALDA 31616 and H9)
Molecule,"EC50 [1, 13] [nM]","EC90 [1, 14] [nM]",EC50 (SARS-CoV-2 (WA-1) [2]; [15]) [nM],EC90 (SARS-CoV-2 (WA-1) [2]; [16]) [nM],EC50 (SARS-CoV-2 (WA-1) [3]; [17]) [nM],EC90 (SARS-CoV-2 (WA-1) [3]; [18]) [nM],CC50 at 44 h (in vitro [4]) [nM],CC50 at 48 h (in vitro [5]) [nM],CC50 (in vitro [6]; chlorocebus aethiops) [nM],other results
"CCCCCCCCCCCCCCCCCCOCC(COP(=O)(O)OC[C@H]1O[C@@](C#N)(c2ccc3c(N)ncnn23)[C@H](O)[C@@H]1O)OCc1ccccc1 (stereo partly drawn) [Compound 9c, ((2R,3S,4R,5R)-5-(4-aminopyrrolo[2,1-f][1,2,4]triazin-7-yl)-5-cyano-3,4-dihydroxytetrahydrofuran-2-yl)methyl ((R,S)-2-(benzyloxy)-3-(octadecyloxy)propyl) hydrogen phosphate]",172 ± 78,1070 ± 1040,175 ± 120,519 ± 256,238 ± 74,613 ± 84,92100,64600,> 100000,
"CCCCCCCCCCCCCCCCCCOC[C@H](COP(=O)(O)OC[C@H]1O[C@@](C#N)(c2ccc3c(N)ncnn23)[C@H](O)[C@@H]1O)OCc1cccc(F)c1 [Compound 9d, ((2R,3S,4R,5R)-5-(4-Aminopyrrolo[2,1-f][1,2,4]triazin-7-yl)-5-cyano-3,4-dihydroxytetrahydrofuran-2-yl)methyl ((R)-2-((3-fluorobenzyl)oxy)-3-(octadecyloxy)propyl) hydrogen phosphate]",224 ± 129,506 ± 204,191 ± 77,488 ± 199,271 ± 22,629 ± 61,94700,75000,> 100000,
"CCCCCCCCCCCCCCCCCCOC[C@H](COP(=O)(O)OC[C@H]1O[C@@](C#N)(c2ccc3c(N)ncnn23)[C@H](O)[C@@H]1O)OCc1ccc(OC)c(F)c1 [Compound 9g, ((2R,3S,4R,5R)-5-(4-Aminopyrrolo[2,1-f][1,2,4]triazin-7-yl)-5-cyano-3,4-dihydroxytetrahydrofuran-2-yl)methyl ((R)-2-((3-fluoro-4-methoxybenzyl)oxy)-3-(octadecyloxy)propyl) hydrogen phosphate]",77 ± 27,145 ± 54,60 ± 37,212 ± 86,178 ± 57,294 ± 62,50500,70100,> 100000,EC50 (SARS-CoV-2 (WA-1) [7]; [19]): 167 ± 55 nM; EC90 (SARS-CoV-2 (WA-1) [7]; [19]): 348 ± 121 nM; CC50 at 24 h (in vitro [8]): > 20000 nM
"CCCCCCCCCCCCCCCCCCOC[C@H](COP(=O)(O)OC[C@H]1O[C@@](C#N)(c2ccc3c(N)ncnn23)[C@H](O)[C@@H]1O)OCCCCCCCC [Compound 9h, ((2R,3S,4R,5R)-5-(4-Aminopyrrolo[2,1-f][1,2,4]triazin-7-yl)-5-cyano-3,4-dihydroxytetrahydrofuran-2-yl)methyl ((R)-3-(octadecyloxy)-2-(octyloxy)propyl) hydrogen phosphate]",391 ± 39,2500 ± 1240,564 ± 252,3360 ± 2860,775 ± 245,1790 ± 140,> 100000,> 100000,> 100000,
"CCCCCCCCCCCCCCCCCCOC[C@H](COP(=O)(O)OC[C@H]1O[C@@](C#N)(c2ccc3c(N)ncnn23)[C@H](O)[C@@H]1O)OCCC1CCCCC1 [Compound 9i, ((2R,3S,4R,5R)-5-(4-Aminopyrrolo[2,1-f][1,2,4]triazin-7-yl)-5-cyano-3,4-dihydroxytetrahydrofuran-2-yl)methyl ((R)-2-(2-cyclohexylethoxy)-3-(octadecyloxy)propyl) hydrogen phosphate]",144 ± 20,1830 ± 1040,92 ± 26,1310 ± 310,296 ± 10,582 ± 14,98700,69800,,CC50 (in vitro [6]; African green monkey): > 100000 nM
"CCCCCCCCCCCCCCCCOC[C@H](COP(=O)(O)OC[C@H]1O[C@@](C#N)(c2ccc3c(N)ncnn23)[C@H](O)[C@@H]1O)OCc1ccccc1 [Compound 11a, ((2R,3S,4R,5R)-5-(4-Aminopyrrolo[2,1-f][1,2,4]triazin-7-yl)-5-cyano-3,4-dihydroxytetrahydrofuran-2-yl)methyl ((R)-2-(benzyloxy)-3-(hexadecyloxy)propyl) hydrogen phosphate]",95 ± 12,716 ± 270,131 ± 66,268 ± 221,402 ± 84,798 ± 154,88700,> 100000,> 100000,
"CCCCCCCCCCCCCCCCOC[C@H](COP(=O)(O)OC[C@H]1O[C@@](C#N)(c2ccc3c(N)ncnn23)[C@H](O)[C@@H]1O)OCc1ccc(OC)c(F)c1 [Compound 11g, ((2R,3S,4R,5R)-5-(4-Aminopyrrolo[2,1-f][1,2,4]triazin-7-yl)-5-cyano-3,4-dihydroxytetrahydrofuran-2-yl)methyl ((R)-2-((3-fluoro-4-methoxybenzyl)oxy)-3-(hexadecyloxy)propyl) hydrogen phosphate]",51 ± 18,240 ± 131,50 ± 22,103 ± 47,406 ± 87,858 ± 249,75700,59000,> 100000,EC50 (SARS-CoV-2 (WA-1) [7]; [19]): 130 ± 56 nM; EC90 (SARS-CoV-2 (WA-1) [7]; [19]): 267 ± 19 nM; CC50 at 24 h (in vitro [8]): > 20000 nM
"CCCCCCCCCCCCCCOC[C@H](COP(=O)(O)OC[C@H]1O[C@@](C#N)(c2ccc3c(N)ncnn23)[C@H](O)[C@@H]1O)OCc1ccccc1 [Compound 12a, ((2R,3S,4R,5R)-5-(4-Aminopyrrolo[2,1-f][1,2,4]triazin-7-yl)-5-cyano-3,4-dihydroxytetrahydrofuran-2-yl)methyl ((R)-2-(benzyloxy)-3-(tetradecyloxy)propyl) hydrogen phosphate]",213 ± 97,575 ± 251,,,909 ± 27,1630 ± 120,> 100000,> 100000,> 100000,EC50 (SARS-CoV-2 (WA-1) [2]; [20]): 157 ± 400 nM; EC90 (SARS-CoV-2 (WA-1) [2]; [20]): 479 ± 19 nM
"CCC(CC)COC(=O)[C@H](C)N[P@](=O)(OC[C@H]1O[C@@](C#N)(c2ccc3c(N)ncnn23)[C@H](O)[C@@H]1O)Oc1ccccc1 [RDV, remdesivir]",,,,,,,,,,"EC50 [9]: 230 nM; EC90 [9]: 310 nM; CC50 (Calu-3 cells [10]; Calu-3 cells, ref Schooley et al.[24]): > 100000 nM"
"N#C[C@@]1(c2ccc3c(N)ncnn23)O[C@H](CO)[C@@H](O)[C@H]1O [RVn, GS-441524]",,,,,,,,,,CC50 (Calu-3 cells [10]): > 100000 nM
"((2R,3S,4R,5R)-5-(4-Aminopyrrolo[2,1-f][1,2,4]triazin-7-yl)-5-cyano-3,4-dihydroxytetrahydrofuran-2-yl)methyl ((R)-2-((3-fluoro-4-methoxybenzyl)oxy)-7-(tetradec-5-en-1-yloxy)heptyl) hydrogen phosphate [Compound 10g]",,,,,,,,,,"fold better potency ([1]; 3-fluoro-4-methoxybenzyl at sn-2 versus unsubstituted benzyl): 2–3 fold; fold more active than RDV ([1]; Calu-3 cells, based on EC50): 3.3 fold; EC90 ([1]; WA1, Calu-3 cells): 149 ± 117 nM; EC50 ([1]; WA1, Calu-3 cells): 70 ± 3 nM; EC50 (SARS-CoV-2 (WA-1) [2]; [21]): 54 ± 16 nM; EC90 (SARS-CoV-2 (WA-1) [2]; [22]): 95 ± 27 nM; EC90 (SARS-CoV-2 (WA-1) [3]; [23]): 554 ± 54 nM; EC50 (SARS-CoV-2 (WA-1) [3]; [24]): 300 ± 38 nM; EC50 (SARS-CoV-2 (WA-1) [7]; [25]): 82 ± 13 nM; EC90 (SARS-CoV-2 (WA-1) [7]; [25]): 175 ± 16 nM; CC50 (Calu-3 cells [11]): 58700 nM; CC50 (Huh7.5 cells): > 100000 nM; CC50 (Vero-TMPRSS2 cells): > 100000 nM; CC50 [12]: > 20000 nM"
"((2R,3S,4R,5R)-5-(4-Aminopyrrolo[2,1-f][1,2,4]triazin-7-yl)-5-cyano-3,4-dihydroxytetrahydrofuran-2-yl)methyl ((R)-2-(benzyloxy)-7-(tetradec-5-en-1-yloxy)heptyl) hydrogen phosphate [Compound 10a]",,,,,,,,,,"EC90 ([1]; WA1, Calu-3 cells): 324 ± 127 nM; EC50 ([1]; WA1, Calu-3 cells): 193 ± 58 nM; EC50 (SARS-CoV-2 (WA-1) [2]; [21]): 109 ± 55 nM; EC90 (SARS-CoV-2 (WA-1) [2]; [22]): 224 ± 100 nM; EC90 (SARS-CoV-2 (WA-1) [3]; [23]): 570 ± 54 nM; EC50 (SARS-CoV-2 (WA-1) [3]; [24]): 293 ± 20 nM; EC50 (SARS-CoV-2 (WA-1) [7]; [25]): 267 ± 118 nM; EC90 (SARS-CoV-2 (WA-1) [7]; [25]): 555 ± 250 nM; CC50 (Calu-3 cells [11]): 79200 nM; CC50 (Huh7.5 cells): > 100000 nM; CC50 (Vero-TMPRSS2 cells): > 100000 nM; CC50 [12]: > 20000 nM"

# Reference: article PMC10108740 (Journal of Medicinal Chemistry, 2023)
